Source: ChEMBL document CHEMBL1151017, “The synthesis of N-aryl androsterone pyrazoles as aromatase inhibitors” (Bioorg Med Chem Lett, 1997)

Key:
Aromatase [1] = molecular target: T1, Aromatase (Homo sapiens, UniProt P11511); assay: Inhibition of cytochrome P450 19A1 aromatase from human placental microsomes
T1 sequence (P11511 whole entry): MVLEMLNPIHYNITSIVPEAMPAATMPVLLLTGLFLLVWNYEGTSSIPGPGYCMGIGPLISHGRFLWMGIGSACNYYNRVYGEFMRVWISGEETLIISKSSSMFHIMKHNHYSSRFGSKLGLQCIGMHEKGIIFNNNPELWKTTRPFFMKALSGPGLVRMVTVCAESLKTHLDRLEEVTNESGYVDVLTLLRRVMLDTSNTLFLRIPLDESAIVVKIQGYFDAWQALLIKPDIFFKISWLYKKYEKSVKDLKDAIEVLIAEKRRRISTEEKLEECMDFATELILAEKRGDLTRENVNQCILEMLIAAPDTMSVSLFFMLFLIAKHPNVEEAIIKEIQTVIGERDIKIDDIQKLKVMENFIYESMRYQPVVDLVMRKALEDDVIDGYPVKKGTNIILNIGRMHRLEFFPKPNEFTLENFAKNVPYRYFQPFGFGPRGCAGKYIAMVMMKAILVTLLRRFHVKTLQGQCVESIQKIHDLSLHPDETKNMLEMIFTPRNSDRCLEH

Aromatase [2] = molecular target: T1, Aromatase; assay: Inhibition of aromatase cytochrome P450 from human placental microsomes; 800-1000

Q: How did the IC50 (Aromatase [1]) turn out when `CC12CCC3C(Cc4c5c(nn4Cc4ccc([N+](=O)[O-])cc4)C(=O)CCC53C)C1CCC2=O` (configuration not stated) was run?
A: 0.49 µM

Q: With `CC12CCC3C(Cc4c5c(nn4Cc4ccccc4)C(=O)CCC53C)C1CCC2=O` (configuration not stated) as the compound, how does the IC50 (Aromatase [1]) read?
A: 0.245 µM

Q: For `CC12CCC3C(Cc4nn(C/C=C/c5ccccc5)c5c4C3(C)CCC5=O)C1CCC2=O` (configuration not stated), which IC50 (Aromatase [2]) is on record?
A: 0.8 µM

Q: Which IC50 (Aromatase [1]) does the source give for `CC12CCC3C(Cc4[nH]nc5c4C3(C)CCC5=O)C1CCC2=O` (configuration not stated) here?
A: 0.236 µM

Q: Which IC50 (Aromatase [1]) does the source give for `CC12CCC3C(Cc4nn(Cc5ccccc5)c5c4C3(C)CCC5=O)C1CCC2=O` (configuration not stated) here?
A: 0.342 µM

Q: How did the IC50 (Aromatase [1]) turn out when `CC12CCC3C(Cc4nn(Cc5ccc([N+](=O)[O-])cc5)c5c4C3(C)CCC5=O)C1CCC2=O` (configuration not stated) was run?
A: 0.658 µM

Q: Which IC50 (Aromatase [1]) does the source give for `CC12CCC3C(Cc4c5c(nn4C/C=C/c4ccccc4)C(=O)CCC53C)C1CCC2=O` (configuration not stated) here?
A: 0.95 µM
